The record followed here is PMC8171317, “Total synthesis, isolation, surfactant properties, and biological evaluation of ananatosides and related macrodilactone-containing rhamnolipids” (Chemical Science, 2021).

Data set [1] in a line: Cytotoxicity, resazurin assay. Type of data set: cell-based, human. The following applies: human, max tested 200 μM. The protocol: (§1) As the anticancer potential of microbial rhamnolipids has previously been reported,[16] we next sought to evaluate the in vitro cytotoxicity of our synthetic and natural glycolipids 1–6 against cancerous cell lines, i.e., human lung carcinoma (A549) and colorectal adenocarcinoma (DLD-1). The compounds were also tested against human normal skin fibroblasts (WS1) to estimate their selectivity towards cancer cells.
(§2) 4. Experimental Procedures for Biological Evaluation and Surfactant Properties. […]
(§3) Cell Culture. Human lung carcinoma (A549), human colorectal adenocarcinoma (DLD-1), and human normal skin fibroblasts (WS1) cell lines were obtained from the American Type Culture Collection (ATCC). All cell lines were cultured in minimum essential medium containing Earle’s […]
(§4) salts and L-glutamine (Mediatech Cellgro, VA), to which were added 10% foetal bovine serum (Hyclone), vitamins (1×), penicillin (100 IU•mL-1), streptomycin (100 µg•mL−1), essential amino acids (1×), and sodium pyruvate (1×) (Mediatech Cellgro, VA). Cells were kept at 37 °C in a humidified environment containing 5% CO2.
(§5) Cytotoxicity Assay. Exponentially growing A549, DLD-1 or WS1 cells were plated in 96-well microplates (Costar, Corning Inc.) at a density of 5 × 10^3 cells per well in 100 µL of culture medium and were allowed to adhere for 16 h prior treatment. Increasing concentrations of each compound in biotech DMSO (Sigma-Aldrich) were then added (100 µL per well) and the cells were incubated for 48 h. The final concentration of DMSO in the culture medium was maintained at 0.5% (v/v) to avoid solvent toxicity. Cytotoxicity was assessed using resazurin9 on an automated 96-well Fluoroskan Ascent F1TM plate reader (Labsystems) using excitation and emission wavelengths of 530 and 590 nm, respectively. Fluorescence was proportional to the cellular metabolic activity in each well. Survival percentage was defined as the fluorescence in experimental wells as compared to that in control wells after subtraction of blank values. Each experiment was carried out three times in triplicate. IC50 results were expressed as means ± standard deviation. […]

A short description of data set [2]: Cytotoxicity, resazurin assay, summary over cell lines. The data set is classed as cell-based. Particulars: human, DLD-1 and WS1 cells (summary over the three lines); A549, DLD-1 and WS1; read-out: Cytotoxicity IC50 against human cell lines. The protocol:
as §1, §2, §3, §4, §5
A general note: Alamar Blue is a resazurin reagent that responds to reducing activity.

Data set [3] can be described thus: Dynamic light scattering (Zetasizer), hydrodynamic diameter of micelles. Type of data set: physicochemical. Particulars: pH 7.0; concentration 80 μM. The source says:
In parallel to these experiments, we took advantage of dynamic light scattering (DLS) to evaluate the hydrodynamic diameter of biosurfactant micelles formed at concentrations above the CMC (Table 4).[79] DLS considers the intensity of light scattered by spherical particles, which prevents its application for highly polydisperse and non-spherical colloidal systems. […] Once again, due to its hydrophobicity, ananatoside A (1) was too polydisperse for conducting a proper distribution analysis, showing a Z-average value above 800 nm, which meant that the particles were aggregated in water at the tested concentration. Similar results were obtained for ananatoside A (1) when the DLS experiments were conducted in DMSO as the solvent.

Where [4] appears, read: DLD-1 colorectal adenocarcinoma cells.

Where only a bound is given, the exact number is not on record here.

What is called IC50 is the concentration that inhibits the measured activity by half. As to `CCCCCCC[C@@H]1CC(=O)OC[C@H]2O[C@@H](O[C@H](CCCCCCC)CC(=O)O1)[C@H](O)[C@@H](O)[C@@H]2O` [Compound 1, ananatoside A], the IC50 at 48 h is 50 ± 7 µM in data set [1] (A549 lung carcinoma cells), 58 ± 2 µM in data set [1] (setting [4]), 52 ± 4 µM in data set [1] (WS1 normal skin fibroblasts) and 50 to 58 µM in data set [2].

For the compound `CCCCCCC[C@H](CC(=O)O)OC(=O)C[C@@H](CCCCCCC)O[C@@H]1O[C@H](CO)[C@@H](O)[C@H](O)[C@H]1O` [Compound 2, ananatoside B], the “Z-Average (hydrodynamic diameter of micelles)” value in data set [3] was found to be 99.0 nm. Further, the IC50 at 48 h in data set [1] (A549 lung carcinoma cells), in data set [1] (setting [4]), in data set [1] (WS1 normal skin fibroblasts) and in data set [2] was over 200 µM each time.
